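How tested: cells in 96-well plates exposed to compound for 48 hours at five concentrations. TGI denotes the concentration required for complete inhibition of growth.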
How the values were obtained:
Experiment in all cases: NCI tumour cell line growth inhibition, 48 h
786-0 renal = test system: 786-0 renal
A498 renal = test system: A498 renal
A549 NSCLC = test system: A549 NSCLC
ACHN renal = test system: ACHN renal
BT-549 breast = test system: BT-549 breast
CAKI-1 renal = test system: CAKI-1 renal
CCRF-CEM leukemia = test system: CCRF-CEM leukemia
COLO 205 colon = test system: COLO 205 colon
DU-145 prostate = test system: DU-145 prostate
EKVX NSCLC = test system: EKVX NSCLC
HCC-2998 colon = test system: HCC-2998 colon
HCT-116 colon = test system: HCT-116 colon
HCT-15 colon = test system: HCT-15 colon
HL-60(TB) leukemia = test system: HL-60(TB) leukemia
HOP-62 NSCLC = test system: HOP-62 NSCLC
HOP-92 NSCLC = test system: HOP-92 NSCLC
HT29 colon = test system: HT29 colon
IGROV1 ovarian = test system: IGROV1 ovarian
K-562 leukemia = test system: K-562 leukemia
KM12 colon = test system: KM12 colon
LOX IMVI melanoma = test system: LOX IMVI melanoma
M14 melanoma = test system: M14 melanoma
MALME-3M melanoma = test system: MALME-3M melanoma
MCF7 breast = test system: MCF7 breast
MDA-MB-231 breast = test system: MDA-MB-231 breast
MDA-MB-435 = test system: MDA-MB-435
MDA-N = test system: MDA-N
MOLT-4 leukemia = test system: MOLT-4 leukemia
NCI-H226 lung = test system: NCI-H226 lung
NCI-H23 lung = test system: NCI-H23 lung
NCI-H460 lung = test system: NCI-H460 lung
NCI-H522 lung = test system: NCI-H522 lung
NCI/ADR-RES ovarian = test system: NCI/ADR-RES ovarian
OVCAR-3 ovarian = test system: OVCAR-3 ovarian
OVCAR-4 ovarian = test system: OVCAR-4 ovarian
OVCAR-5 ovarian = test system: OVCAR-5 ovarian
OVCAR-8 ovarian = test system: OVCAR-8 ovarian
PC-3 prostate = test system: PC-3 prostate
RPMI-8226 leukemia = test system: RPMI-8226 leukemia
RXF 393 renal = test system: RXF 393 renal
SF-268 CNS = test system: SF-268 CNS
SF-295 CNS = test system: SF-295 CNS
SF-539 CNS = test system: SF-539 CNS
SK-MEL-2 melanoma = test system: SK-MEL-2 melanoma
SK-MEL-28 melanoma = test system: SK-MEL-28 melanoma
SK-MEL-5 melanoma = test system: SK-MEL-5 melanoma
SK-OV-3 ovarian = test system: SK-OV-3 ovarian
SN12C renal = test system: SN12C renal
SNB-19 CNS = test system: SNB-19 CNS
SNB-75 CNS = test system: SNB-75 CNS
SR leukemia = test system: SR leukemia
SW-620 colon = test system: SW-620 colon
T-47D breast = test system: T-47D breast
TK-10 renal = test system: TK-10 renal
U251 CNS = test system: U251 CNS
UACC-257 melanoma = test system: UACC-257 melanoma
UACC-62 melanoma = test system: UACC-62 melanoma
UO-31 renal = test system: UO-31 renal
HS 578T breast = test system: HS 578T breast

CN(C)CCCNC(=O)c1cc(NC(=O)c2cc(NS(=O)(=O)c3ccc4c(c3)C(=O)c3ccccc3C4=O)cn2C)cn1C
TGI (786-0 renal): > 100 µM
TGI (A498 renal): > 100 µM
TGI (A549 NSCLC): > 100 µM
TGI (ACHN renal): > 100 µM
TGI (BT-549 breast): > 100 µM
TGI (CAKI-1 renal): > 100 µM
TGI (CCRF-CEM leukemia): > 100 µM
TGI (COLO 205 colon): > 100 µM
TGI (DU-145 prostate): > 100 µM
TGI (EKVX NSCLC): > 100 µM
TGI (HCC-2998 colon): > 100 µM
TGI (HCT-116 colon): > 100 µM
TGI (HCT-15 colon): > 100 µM
TGI (HL-60(TB) leukemia): > 100 µM
TGI (HOP-62 NSCLC): > 100 µM
TGI (HOP-92 NSCLC): > 100 µM
TGI (HT29 colon): > 100 µM
TGI (IGROV1 ovarian): > 100 µM
TGI (K-562 leukemia): > 100 µM
TGI (KM12 colon): > 100 µM
TGI (LOX IMVI melanoma): > 100 µM
TGI (M14 melanoma): > 100 µM
TGI (MALME-3M melanoma): 79.4 µM
TGI (MCF7 breast): > 100 µM
TGI (MDA-MB-231 breast): > 100 µM
TGI (MDA-MB-435): > 100 µM
TGI (MDA-N): > 100 µM
TGI (MOLT-4 leukemia): > 100 µM
TGI (NCI-H226 lung): > 100 µM
TGI (NCI-H23 lung): > 100 µM
TGI (NCI-H460 lung): > 100 µM
TGI (NCI-H522 lung): > 100 µM
TGI (NCI/ADR-RES ovarian): > 100 µM
TGI (OVCAR-3 ovarian): > 100 µM
TGI (OVCAR-4 ovarian): > 100 µM
TGI (OVCAR-5 ovarian): > 100 µM
TGI (OVCAR-8 ovarian): > 100 µM
TGI (PC-3 prostate): > 100 µM
TGI (RPMI-8226 leukemia): > 100 µM
TGI (RXF 393 renal): > 100 µM
TGI (SF-268 CNS): > 100 µM
TGI (SF-295 CNS): > 100 µM
TGI (SF-539 CNS): > 100 µM
TGI (SK-MEL-2 melanoma): > 100 µM
TGI (SK-MEL-28 melanoma): > 100 µM
TGI (SK-MEL-5 melanoma): > 100 µM
TGI (SK-OV-3 ovarian): > 100 µM
TGI (SN12C renal): > 100 µM
TGI (SNB-19 CNS): > 100 µM
TGI (SNB-75 CNS): > 100 µM
TGI (SR leukemia): > 100 µM
TGI (SW-620 colon): > 100 µM
TGI (T-47D breast): > 100 µM
TGI (TK-10 renal): > 100 µM
TGI (U251 CNS): > 100 µM
TGI (UACC-257 melanoma): > 100 µM
TGI (UACC-62 melanoma): > 100 µM
TGI (UO-31 renal): > 100 µM

Cc1nc2c(O)cc3c4c(=O)n(C)c(=O)n(C)c4n(Cc4ccccc4)c3c2nc1C
TGI (786-0 renal): 32.8 µM
TGI (A498 renal): 81.7 µM
TGI (A549 NSCLC): 36.2 µM
TGI (ACHN renal): 31.7 µM
TGI (CCRF-CEM leukemia): 50 µM
TGI (COLO 205 colon): 28 µM
TGI (DU-145 prostate): > 100 µM
TGI (EKVX NSCLC): 50.2 µM
TGI (HCC-2998 colon): 40.3 µM
TGI (HCT-116 colon): 52.1 µM
TGI (HCT-15 colon): 34.3 µM
TGI (HL-60(TB) leukemia): 53.8 µM
TGI (HOP-62 NSCLC): 33.6 µM
TGI (HOP-92 NSCLC): 27.2 µM
TGI (HS 578T breast): 80.1 µM
TGI (HT29 colon): 32.2 µM
TGI (K-562 leukemia): > 100 µM
TGI (KM12 colon): 54 µM
TGI (LOX IMVI melanoma): 37.4 µM
TGI (M14 melanoma): 36.6 µM
TGI (MALME-3M melanoma): 38.8 µM
TGI (MCF7 breast): 32.2 µM
TGI (MDA-MB-231 breast): 38.2 µM
TGI (MDA-MB-435): 33.9 µM
TGI (MDA-N): 34.2 µM
TGI (MOLT-4 leukemia): 70.1 µM
TGI (NCI-H226 lung): 55.3 µM
TGI (NCI-H23 lung): 38 µM
TGI (NCI-H460 lung): > 100 µM
TGI (NCI/ADR-RES ovarian): 74.9 µM
TGI (OVCAR-4 ovarian): 23.7 µM
TGI (OVCAR-5 ovarian): 43.6 µM
TGI (OVCAR-8 ovarian): 33.1 µM
TGI (PC-3 prostate): 31.2 µM
TGI (RPMI-8226 leukemia): 51.8 µM
TGI (RXF 393 renal): 26.7 µM
TGI (SF-268 CNS): 32.9 µM
TGI (SF-295 CNS): > 100 µM
TGI (SF-539 CNS): 30 µM
TGI (SK-MEL-2 melanoma): 31.9 µM
TGI (SK-MEL-28 melanoma): 28 µM
TGI (SK-MEL-5 melanoma): 32.8 µM
TGI (SK-OV-3 ovarian): 32.2 µM
TGI (SN12C renal): 38.1 µM
TGI (SNB-19 CNS): 34.4 µM
TGI (SR leukemia): 57.6 µM
TGI (SW-620 colon): 44.2 µM
TGI (TK-10 renal): 38.4 µM
TGI (U251 CNS): 35.4 µM
TGI (UACC-257 melanoma): 33.1 µM
TGI (UACC-62 melanoma): 34 µM
TGI (UO-31 renal): 31.4 µM
